The test system of series [1] is HSV-1 and HSV-2. The settings on record: prior studies (Cheshenko, 2003; 2007); cited from earlier work.
The subject of series [2] is HSV-2. The series is described as follows: VP16 nuclear transport as surrogate of viral entry. Type of series: cell-based. The settings on record: 1 μM, treated immediately prior to infection, 1 pfu/cell. On the procedure:
(§1) FIG. 3A-3C: Silencing of Akt inhibits viral entry independent of viral binding. Transfected CaSki cells were exposed to serial dilutions of HSV-2(G) at the moi (pfu/cell) indicated for 5 h at 4° C. The cell-bound viral particles were detected by analyzing Western blots of cell lysates for gD; blots were also probed with antibodies to total Akt (to assess silencing) and β-actin (control for protein loading) (a). Cells were transfected with siControl or siAkt123 and silencing confirmed by preparing Western blots of cell lysates 48 h post-transfection and probing for total Akt and β-actin expression (b). The siRNA-transfected cells were inoculated with HSV-2(G) and nuclear extracts were prepared and analyzed for the presence of the viral tegument protein VP16 by Western blotting; blots were probed with antibodies to histone-H1 as a nuclear extract control. […]
FIG. 4A-4E: Akt is required for HSV-induced calcium release and treatment with the ionophore, ionomycin, partially overcomes the block to infection in Akt-silenced cells. […] Transfected cells were loaded with fura-2, infected with purified HSV-2 (moi 2 pfu/cell) or mock-infected and the kinetics of Ca^2+ response monitored. The mean intracellular [Ca^2+] for 5×10^4 cells over the first 30 minutes was quantified; control cells were also pretreated with wortmannin or miltefosine and then infected with HSV-2 (b). […]

For series [3], the system named is HSV-induced Ca2+ response. The series is described as follows: Calcium kinetic measurements (fura-2 fluorometry) in CaSki cells. In kind it is cell-based, human. The method, then:
FIG. 4A-4E: Akt is required for HSV-induced calcium release and treatment with the ionophore, ionomycin, partially overcomes the block to infection in Akt-silenced cells. CaSki cells were loaded with Calcium Green 72 h post-transfection with the indicated siRNA and synchronously mock-infected or infected with purified HSV-2(G). Live images were acquired 3 min post-temperature shift to 37° C. For these xyz images, the plasma membranes are red (medium gray in grayscale), nuclei are blue (darkest gray in grayscale), and Ca^2+ is green (lighter gray in grayscale); colocalization of Ca^2+ and plasma membrane is yellow (lightest gray in grayscale). Representative images from 4 independent experiments are shown; the grid bars indicate a distance of 9.2 micrometers (a). Transfected cells were loaded with fura-2, infected with purified HSV-2 (moi 2 pfu/cell) or mock-infected and the kinetics of Ca^2+ response monitored. The mean intracellular [Ca^2+] for 5×10^4 cells over the first 30 minutes was quantified; control cells were also pretreated with wortmannin or miltefosine and then infected with HSV-2 (b). The cumulative [Ca^2+] released over 1 hour was calculated from 4 wells, each containing 5×10^4 cells (mock-infected, HSV-2 infected in the absence or presence of wortmannin or miltefosine, or following treatment of uninfected cells with 1 μM of ionomycin) (c). […]

The subject of series [4] is HSV-1 K26GFP. The experiment in a line: Viral entry by confocal microscopy with HSV-1 K26GFP in CaSki cells. In kind it is cell-based. The settings on record: CaSki cells pretreated with drug. The method, then: as §1
Two independent approaches were applied to determine if Akt contributes to viral entry. […] After incubation for 45 minutes, nuclear extracts were prepared and evaluated for VP16 by Western blot; histone H1 was included as a control for the nuclear extracts (FIG. 3b). […] Viral capsids were readily detected in the majority of siControl cells (73% and 82% 1 and 4 h pi, respectively), whereas viral capsids were detected in few siAkt cells (7% and 5.5%) (FIG. 3c). […]
Confocal microscopy: Viral entry was also monitored by confocal microscopy. […]

Series [5] has as its system HSV-2(4674). The series is described as follows: Ganglion-epithelial cell ex vivo co-culture model.
Method: Sacral ganglia were extracted from mice on day 7 following intravaginal infection with the indicated viral inoculum and co-cultured ex vivo with Vero cells in medium containing DMSO or 20 μM miltefosine. Culture supernatants were collected on the indicated days post-co-culture and viral growth monitored by plaque assay. Results are presented as pfu/ml (mean±sd) obtained from two independent experiments; each with sacral ganglia (d).
Sacral ganglia were removed from mice that had been vaginally infected with 5×10^4 or 5×10^5 pfu of HSV-2 on Day 7 and were then co-cultured with Vero cells in the absence or presence of 20 μM miltefosine. Media was removed on the indicated days post-co-culture and assayed for the presence of infectious virus by titering on Vero cells.
Ganglion-epithelial cell ex vivo co-cultures: Seven days pi, sacaral ganglia were excised from animals that been intravaginally infected with 5×10^4 or 5×10^5 pfu of HSV-2(4674). The tissue was co-cultured with confluent Vero cells in 60-mm Petri dishes containing DMEM supplemented with 0.1% DMSO (control) or with 20 μM of miltefosine. Culture supernatants were collected on days 2-7 post-co-culture and concentration of virus released into the media determined by plaque assay on Vero cells.
The subject of series [6] is HSV-2 clinical isolates DT1 and DT2. The settings on record: CaSki cells pretreated.
Method: CaSki cells were pretreated with control buffer or with miltefosine prior to Infection with an acyclovir susceptible (DT1) or acyclovir-resistant (DT2) isolate. Alternatively cells were pretreated with control buffer and acyclovir (dose) was added to the overlay media.
The HSV-2 clinical isolates 4674, DT1 (acyclovir susceptible) and DT2 (acyclovir resistant) were propagated on CaSki cells (Segarra, 2011)(Oram, 2000).
For plaque assays, cells were exposed to serial dilutions of virus for 1 h and then washed three times with phosphate buffered saline (PBS), pH 7.4, and overlaid with 199 medium containing 1% pooled human IgG. Plaques were counted by immunoassay using an anti-human IgG antibody peroxidase conjugate (Calbiochem) (Herold, 1991). In select experiments cells were pretreated with drugs that block Akt signaling or acyclovir was added to the overlay medium.
Series [7] deals with HSV-2. The series is described as follows: HSV-2 plaque assay after pretreatment with Akt pharmacological inhibitors. Type of series: cell-based. The settings on record: CaSki, SK-N-SH or HaCAT cells pretreated 15 min with drug, infected with HSV-2 1 h, plaques counted 48 h pi. On the procedure:
FIG. 8A-8B: Pharmacological inhibitors of Akt signaling inhibit HSV-2 plaque formation. Cells (CaSki, SK-N-SH, or HaCAT) cells were pretreated for 15 minutes with each of the indicated drugs and then challenged with serial dilutions of HSV-2. The inoculum (and drug) were removed after 1 h, and then cells were overlaid with fresh medium; plaques were counted after 48 h incubation. Results are presented as percent pfu relative to control wells (treated with 0.1% DMSO) (a). Alternatively, cells were treated for 24 h with drugs alone (0.01% nonoxynol-9 (N9) is included as a positive toxicity control) and then cell viability determined by MTT assay (b).
Akt is a potential target for HSV treatment: A series of Akt pharmacological inhibitors being developed as adjunct therapy for cancer including MK-2206, an allosteric Akt inhibitor (Yap, 2011); inhibitor VIII, which binds to the pleckstrin homology domain of Akt and prevents subsequent phosphorylation as well as translocation of Akt to the plasma membrane (Calleja, 2009); miltefosine, a drug licensed for treatment of leishmaniasis and other protozoal infections that blocks Akt phosphorylation (Ruiter, 2003), and perifosine, a structural analogue of miltefosine in Phase 3 clinical trials for treatment of several cancers (Richardson, 2012) were tested. […]

For series [8], the system named is Akt. The series is described as follows: Western blot of HSV-induced Akt phosphorylation (pS473-Akt1/2/3) in HaCAT cells. In kind it is cell-based, human. The settings on record: HaCAT cells pretreated with drug, HSV-2(G) moi 10 pfu/cell.

Structures are written as SMILES. Entries after “also recorded” stand apart in the source; their conditions may differ.

Consider `NCCOB(c1ccccc1)c1ccccc1` [2-aminoethoxydiphenyl borate], for which, in series [1], the “increase in [Ca2+] triggered by HSV” value is on record as “blocked” and the viral entry result is reported as “blocked”.
Turning to `C[C@H](CCC(=O)O)C[C@H](C)C[C@H](C)C(=O)/C=C(\O)[C@H](C)C[C@H](C)C/C=C/[C@@H](C)[C@@H](O)[C@@H](C)[C@@H](O)C[C@@H]1CC[C@@](C)([C@H]2CC[C@@](C)([C@@H](C)O)O2)O1` [ionomycin], the “susceptibility to HSV entry in Akt-silenced cells (nuclear VP16)” value in series [2] is reported as “partially restored the susceptibility to HSV entry”. In addition, the “Ca2+ release from siRNA-transfected cell populations” value in series [3] (1 μM, confocal imaging and fluorometry) is “triggered the release of a comparable amount of Ca2+”.
On to `CCCCCCCCCCCCCCCCOP(=O)([O-])OCC[N+](C)(C)C` [miltefosine, 2-(hexadecoxy-oxido-phosphoryl)oxyethyl-trimethyl-azanium], for which the “viral entry (confocal imaging with GFP labeled virus)” value in series [4] is given as “prevented viral entry”. In addition, the “cytotoxicity in ganglion ex vivo co-culture” value in series [5] (cells cultured in drug for one week) is given as “No cytotoxicity was observed”. For the same molecule, in series [5] (mouse sacral ganglia day 7 after vaginal HSV-2, co-cultured with Vero cells, 20 μM), the “viral amplification in ganglion explant co-culture” value is “blocked viral amplification”. The “activity against acyclovir susceptible and acyclovir resistant viruses in a plaque assay” value in series [6] was “active against acyclovir susceptible and acyclovir resistant viruses”. In addition, in series [7], the “inhibition of HSV infection (plaque formation, pfu relative to control wells)” value is reported as “most potent”. Moreover, the “viral induced phosphorylation of Akt” value in series [8] is reported as “blocked viral induced phosphorylation of Akt”. For the same molecule, the “HSV-induced Ca2+ response” value in series [3] (CaSki cells pretreated with drug (wortmannin 5 nM), HSV-2(G) moi 2 pfu/cell, first hour) is “blocked the HSV-induced Ca^2+ response; also recorded: prevented viral induced Ca^2+ response”.

The values above are taken from US9333219B2, “Method to treat or prevent herpesvirus infections” (ALBERT EINSTEIN COLLEGE OF MEDICINE OF YESHIVA UNIVERSITY, priority 2012, dated 2016).
